Measured values from the supplement of paper PMC11061612.

Columns and labels:
AZD8186 = compound: C[C@@H](Nc1cc(F)cc(F)c1)c1cc(C(=O)N(C)C)cc2c(=O)cc(N3CCOCC3)oc12 [AZD8186]; conditions: max 3 µM
How it was run: (§1)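 Cancer cell lines were dosed for 72 hours (final DMSO typically 0.2%) after 24 hours at 37°C and 5% CO2 in 1536-well plates containing 7.5 μl DMEM/F12 or RPMI with 10% FBS. Viability came from CellTiter-Glo 2.0 luminescence, scaled between blank-well and DMSO-well means, and dose responses were fitted to a two-parameter logistic curve with a non-linear mixed effects model. The single-agent IC50 was obtained from this fit.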

AZD6738 = compound: C[C@@H]1COCCN1C2=NC(=NC(=C2)C3(CC3)[S@](=N)(=O)C)C4=C5C=CNC5=NC=C4 [AZD6738]; conditions: max 10 µM
How it was run: as §1

Gefitinib = compound: COc1cc2ncnc(Nc3ccc(F)c(Cl)c3)c2cc1OCCCN1CCOCC1 [Gefitinib]; conditions: max 10 µM
How it was run: as §1

Selumetinib = compound: Cn1cnc2c(F)c(Nc3ccc(Br)cc3Cl)c(C(=O)NOCCO)cc21 [Selumetinib]
How it was run: as §1

Doxorubicin = compound: COc1cccc2c1C(=O)c1c(O)c3c(c(O)c1C2=O)C[C@@](O)(C(=O)CO)C[C@@H]3O[C@H]1C[C@H](N)[C@H](O)[C@H](C)O1 [Doxorubicin]; conditions: max 1 µM
How it was run: as §1

Crizotinib = compound: C[C@@H](Oc1cc(-c2cnn(C3CCNCC3)c2)cnc1N)c1c(Cl)ccc(F)c1Cl [Crizotinib]; conditions: max 10 µM
How it was run: as §1

Savolitinib = compound: C[C@@H](c1ccc2nccn2c1)n1nnc2ncc(-c3cnn(C)c3)nc21 [Savolitinib]; conditions: max 1 µM
How it was run: as §1

Prexasertib = compound: COc1cccc(OCCCN)c1-c1cc(Nc2cnc(C#N)cn2)n[nH]1 [Prexasertib]; conditions: max 1 µM
How it was run: as §1

AZD1775 = compound: C=CCn1c(=O)c2cnc(Nc3ccc(N4CCN(C)CC4)cc3)nc2n1-c1cccc(C(C)(C)O)n1 [AZD1775]
How it was run: as §1

AZD5991 = compound: Cc1c2c(nn1C)CSCc1cc(n(C)n1)CSc1cc(c3ccccc3c1)OCCCc1c(C(=O)O)n(C)c3c-2c(Cl)ccc13 [AZD5991]; conditions: max 1 µM
How it was run: as §1

Dasatinib = compound: CC1=C(C(=CC=C1)Cl)NC(=O)C2=CN=C(S2)NC3=CC(=NC(=N3)C)N4CCN(CC4)CCO [Dasatinib]; conditions: max 2 µM
How it was run: as §1

SN-38 = compound: CCc1c2c(nc3ccc(O)cc13)-c1cc3c(c(=O)n1C2)COC(=O)[C@]3(O)CC [SN-38]; conditions: max 0.3 µM
How it was run: as §1

Olaparib = compound: O=C(c1cc(Cc2n[nH]c(=O)c3ccccc23)ccc1F)N1CCN(C(=O)C2CC2)CC1 [Olaparib]; conditions: max 10 µM
How it was run: as §1

AZD0156 = compound: CN(C)CCCOc1ccc(-c2ccc3ncc4c(c3c2)n(C2CCOCC2)c(=O)n4C)cn1 [AZD0156]
How it was run: as §1

Lapatinib = compound: CS(=O)(=O)CCNCc1ccc(-c2ccc3ncnc(Nc4ccc(OCc5cccc(F)c5)c(Cl)c4)c3c2)o1 [Lapatinib]; conditions: max 10 µM
How it was run: as §1

Taselisib = compound: Cc1nc(-c2cn3c(n2)-c2ccc(-c4cnn(C(C)(C)C(N)=O)c4)cc2OCC3)n(C(C)C)n1 [Taselisib]; conditions: max 10 µM
How it was run: as §1

AZD7648 = compound: Cc1cc2ncnn2cc1Nc1ncc2c(n1)n(C1CCOCC1)c(=O)n2C [AZD7648]; conditions: max 10 µM
How it was run: as §1

AZD1390 = compound: CC(C)n1c(=O)n(C)c2cnc3cc(F)c(-c4ccc(OCCCN5CCCCC5)nc4)cc3c21 [AZD1390]; conditions: max 0.3 µM
How it was run: as §1

SG3199 = compound: CC1=CN2[C@@H](C1)C=NC3=CC(=C(C=C3C2=O)OC)OCCCCCOC4=C(C=C5C(=C4)N=C[C@@H]6CC(=CN6C5=O)C)OC [SG3199]; conditions: max 0.001 µM
How it was run: as §1

Palbociclib = compound: CC(=O)c1c(C)c2cnc(Nc3ccc(N4CCNCC4)cn3)nc2n(C2CCCC2)c1=O [Palbociclib]; conditions: max 10 µM
How it was run: as §1

AZD4320 = compound: CN(CC[C@H](CSC1=CC=CC=C1)NC2=C(C=C(C=C2)S(=O)(=O)NC(=O)C3=CC=C(C=C3)N4CCC(CC4)[C@H](C5=CC=CC=C5C6=CC=C(C=C6)Cl)O)S(=O)(=O)C(F)(F)F)CCO [AZD4320]; conditions: max 1 µM
How it was run: as §1

Alisertib = compound: COc1cc(Nc2ncc3c(n2)-c2ccc(Cl)cc2C(c2c(F)cccc2OC)=NC3)ccc1C(=O)O [Alisertib]; conditions: max 10 µM
How it was run: as §1

AZD5153 = compound: COc1nnc2ccc(N3CCC(c4ccc(OCCN5CCN(C)C(=O)[C@H]5C)cc4)CC3)nn12 [AZD5153]; conditions: max 1 µM
How it was run: as §1

Trametinib = compound: CC(=O)Nc1cccc(-n2c(=O)n(C3CC3)c(=O)c3c(Nc4ccc(I)cc4F)n(C)c(=O)c(C)c32)c1 [Trametinib]; conditions: max 1 µM
How it was run: as §1

Capivasertib = compound: C1CN(CCC1(C(=O)N[C@@H](CCO)C2=CC=C(C=C2)Cl)N)C3=NC=NC4=C3C=CN4 [Capivasertib]
How it was run: as §1

Venetoclax = compound: CC1(C)CCC(CN2CCN(c3ccc(C(=O)NS(=O)(=O)c4ccc(NCC5CCOCC5)c([N+](=O)[O-])c4)c(Oc4cnc5[nH]ccc5c4)c3)CC2)=C(c2ccc(Cl)cc2)C1 [Venetoclax]; conditions: max 1 µM
How it was run: as §1

AZD2811 = compound: CCN(CCO)CCCOc1ccc2c(Nc3cc(CC(=O)Nc4cccc(F)c4)[nH]n3)ncnc2c1 [AZD2811]; conditions: max 1 µM
How it was run: as §1

## 647-V (Bladder Carcinoma)
AZD8186
  IC50, cell viability 72 h: > 3000 nM
AZD6738
  IC50, cell viability 72 h: > 10000 nM
Gefitinib
  IC50, cell viability 72 h: > 10000 nM
Selumetinib; max 10 µM
  IC50, cell viability 72 h: > 10000 nM
Doxorubicin
  IC50, cell viability 72 h: 240 nM
Crizotinib
  IC50, cell viability 72 h: > 10000 nM
Savolitinib
  IC50, cell viability 72 h: > 1000 nM
Prexasertib
  IC50, cell viability 72 h: 174 nM
AZD1775; max 3 µM
  IC50, cell viability 72 h: 812 nM
AZD5991
  IC50, cell viability 72 h: 961 nM
Dasatinib
  IC50, cell viability 72 h: > 2000 nM
SN-38
  IC50, cell viability 72 h: 2.35 nM
Olaparib
  IC50, cell viability 72 h: > 10000 nM
AZD0156; max 3 µM
  IC50, cell viability 72 h: > 3000 nM
Lapatinib
  IC50, cell viability 72 h: > 10000 nM
Taselisib
  IC50, cell viability 72 h: > 10000 nM
AZD7648
  IC50, cell viability 72 h: > 10000 nM
AZD1390
  IC50, cell viability 72 h: > 300 nM
SG3199
  IC50, cell viability 72 h: > 1 nM
Palbociclib
  IC50, cell viability 72 h: > 10000 nM
AZD4320
  IC50, cell viability 72 h: > 1000 nM
Alisertib
  IC50, cell viability 72 h: > 10000 nM
AZD5153
  IC50, cell viability 72 h: > 1000 nM
Trametinib
  IC50, cell viability 72 h: > 1000 nM
Capivasertib; max 10 µM
  IC50, cell viability 72 h: > 10000 nM
Venetoclax
  IC50, cell viability 72 h: > 1000 nM
AZD2811
  IC50, cell viability 72 h: > 1000 nM

## A172 (Glioblastoma)
AZD8186
  IC50, cell viability 72 h: > 3000 nM
AZD6738
  IC50, cell viability 72 h: 9490 nM
Gefitinib
  IC50, cell viability 72 h: > 10000 nM
Selumetinib; max 10 µM
  IC50, cell viability 72 h: > 10000 nM
Doxorubicin
  IC50, cell viability 72 h: 189 nM
Crizotinib
  IC50, cell viability 72 h: > 10000 nM
Savolitinib
  IC50, cell viability 72 h: > 1000 nM
Prexasertib
  IC50, cell viability 72 h: 367 nM
AZD1775; max 3 µM
  IC50, cell viability 72 h: > 3000 nM
AZD5991
  IC50, cell viability 72 h: > 1000 nM
Dasatinib
  IC50, cell viability 72 h: > 2000 nM
SN-38
  IC50, cell viability 72 h: 44.1 nM
Olaparib
  IC50, cell viability 72 h: > 10000 nM
AZD0156; max 3 µM
  IC50, cell viability 72 h: > 3000 nM
Lapatinib
  IC50, cell viability 72 h: > 10000 nM
Taselisib
  IC50, cell viability 72 h: > 10000 nM
AZD7648
  IC50, cell viability 72 h: > 10000 nM
AZD1390
  IC50, cell viability 72 h: > 300 nM
SG3199
  IC50, cell viability 72 h: > 1 nM
Palbociclib
  IC50, cell viability 72 h: > 10000 nM
AZD4320
  IC50, cell viability 72 h: > 1000 nM
Alisertib
  IC50, cell viability 72 h: 1420 nM
AZD5153
  IC50, cell viability 72 h: > 1000 nM
Trametinib
  IC50, cell viability 72 h: > 1000 nM
Capivasertib; max 10 µM
  IC50, cell viability 72 h: > 10000 nM
Venetoclax
  IC50, cell viability 72 h: > 1000 nM
AZD2811
  IC50, cell viability 72 h: 708 nM

## EFM-192A (Breast Carcinoma)
AZD8186
  IC50, cell viability 72 h: > 3000 nM
AZD6738
  IC50, cell viability 72 h: > 10000 nM
Gefitinib
  IC50, cell viability 72 h: > 10000 nM
Selumetinib; max 10 µM
  IC50, cell viability 72 h: > 10000 nM
Doxorubicin
  IC50, cell viability 72 h: > 1000 nM
Crizotinib
  IC50, cell viability 72 h: > 10000 nM
Savolitinib
  IC50, cell viability 72 h: > 1000 nM
Prexasertib
  IC50, cell viability 72 h: > 1000 nM
AZD1775; max 3 µM
  IC50, cell viability 72 h: > 3000 nM
AZD5991
  IC50, cell viability 72 h: 706 nM
Dasatinib
  IC50, cell viability 72 h: > 2000 nM
SN-38
  IC50, cell viability 72 h: > 300 nM
Olaparib
  IC50, cell viability 72 h: > 10000 nM
AZD0156; max 3 µM
  IC50, cell viability 72 h: > 3000 nM
Lapatinib
  IC50, cell viability 72 h: 1360 nM
Taselisib
  IC50, cell viability 72 h: 475 nM
AZD7648
  IC50, cell viability 72 h: > 10000 nM
AZD1390
  IC50, cell viability 72 h: > 300 nM
SG3199
  IC50, cell viability 72 h: > 1 nM
Palbociclib
  IC50, cell viability 72 h: > 10000 nM
AZD4320
  IC50, cell viability 72 h: > 1000 nM
Alisertib
  IC50, cell viability 72 h: > 10000 nM
AZD5153
  IC50, cell viability 72 h: > 1000 nM
Trametinib
  IC50, cell viability 72 h: > 1000 nM
Capivasertib; max 10 µM
  IC50, cell viability 72 h: > 10000 nM
Venetoclax
  IC50, cell viability 72 h: > 1000 nM
AZD2811
  IC50, cell viability 72 h: > 1000 nM

## EKVX (Non-Small Cell Lung Carcinoma)
AZD8186
  IC50, cell viability 72 h: > 3000 nM
AZD6738
  IC50, cell viability 72 h: > 10000 nM
Selumetinib; max 3 µM
  IC50, cell viability 72 h: > 3000 nM
Doxorubicin
  IC50, cell viability 72 h: > 1000 nM
Prexasertib
  IC50, cell viability 72 h: > 1000 nM
AZD1775; max 1 µM
  IC50, cell viability 72 h: > 1000 nM
AZD5991
  IC50, cell viability 72 h: > 1000 nM
SN-38
  IC50, cell viability 72 h: > 300 nM
Olaparib
  IC50, cell viability 72 h: > 10000 nM
AZD0156; max 1 µM
  IC50, cell viability 72 h: > 1000 nM
Taselisib
  IC50, cell viability 72 h: > 10000 nM
AZD7648
  IC50, cell viability 72 h: > 10000 nM
SG3199
  IC50, cell viability 72 h: > 1 nM
AZD4320
  IC50, cell viability 72 h: > 1000 nM
Alisertib
  IC50, cell viability 72 h: > 10000 nM
Trametinib
  IC50, cell viability 72 h: 747 nM
Capivasertib; max 3 µM
  IC50, cell viability 72 h: > 3000 nM
Venetoclax
  IC50, cell viability 72 h: > 1000 nM
AZD2811
  IC50, cell viability 72 h: > 1000 nM
